The values below come from patent US8394791B2, “Crystalline, enantiomerically pure salt form of a beta-agonist, and the use thereof as a drug” (Boehringer Ingelheim International GmbH, priority 2008, dated 2013).

Data set [1] can be described thus: Thermoanalysis (DSC/TG). The format is physicochemical. To be noted: heating rate 10 K/min, crystalline form (FIG. 2). The procedure:
Thermoanalysis (DSC/TG Diagram, FIG. 2)
Technical Data Relating to the Thermoanalytical DSC Device Used:
DSC 822 made by Mettler Toledo; heating rate: 10 K/min; type of crucible: perforated aluminium crucible; atmosphere: N2, 80 ml/min flux; weight: 3-10 mg.
Technical Data Relating to the Thermoanalytical TG Device Used:
TGA/SDTA 851 Made by Mettler Toledo with IR coupling (Nicolet FT-IR 4700) for analysing the volatile fractions driven off; heating rate: 10 K/min; type of crucible: open aluminium oxide crucible; atmosphere: N2, 20 ml/min flux; weight: 15-25 mg.

Data set [2] is described as follows: Sorption profile (DVS sorption balance), hygroscopic characteristics. The format is physicochemical. To be noted: relative humidity range between 10-90%; crystalline form. The procedure: Sorption Profile (DSV Diagram, Kinetic & Isothermic Plot, FIG. 3)
Technical Data Relating to the Sorption Balance Used:
DVS-1 made by Surface Measurement Systems (=SMS) for analysing the hygroscopic characteristics; humidity profile of 10-90% r.h. In 10% steps, recording both a sorption and a desorption profile, weight: 10-20 mg

Each structure is given as a SMILES string.

Take `CCC1(CC)OC(=O)N(CCC(C)(C)NC[C@H](O)c2ccc(O)c(NS(C)(=O)=O)c2)c2ccccc21` [compound 1, N-(5-{(R)-2-[3-(4,4-diethyl-2-oxo-4H-benzo[d][1,3]oxazin-1-yl)-1,1-dimethyl-propylamino]-1-hydroxy-ethyl}-2-hydroxy-phenyl)-methanesulphonamide]: the “thermally stable at a thermal load of up to” value in data set [1] is “up to 210 °C”. In addition, the water absorption result in data set [2] was “less than 0.5 wt. %”.
